Measurements as given in ChEMBL document CHEMBL5352398 (Eur J Med Chem, 2022).
Calls of active or inactive are those of the source. No cut-off for these calls is given here.

Legend:
[1] = MRT (0 to infinity) in Sprague-Dawley rat at 5 mg/kg, iv and measured upto 24 hrs by LC-MS/MS analysis; type: ADME, organism-based; conditions: in vivo
Mus musculus = assay: Anti-hyperuricemic activity against potassium oxonate induced hyperuricemia in Kunming mouse model assessed as decrease in serum urate level at 2 mg/kg, po and measured after 3 hrs; type: functional, organism-based
[2] = molecular target: T1, Solute carrier family 22 member 6 (Homo sapiens, UniProt Q4U2R8); assay: Inhibition of OAT1 (unknown origin) transfected in HEK293 cells assessed as inhibition of 6-CFL uptake preincubated for 30 mins followed by 6-CFL addition and measured for 15 mins by fluorescence based microplate reader analysis; type: cell-based
T1 sequence (Q4U2R8 whole entry): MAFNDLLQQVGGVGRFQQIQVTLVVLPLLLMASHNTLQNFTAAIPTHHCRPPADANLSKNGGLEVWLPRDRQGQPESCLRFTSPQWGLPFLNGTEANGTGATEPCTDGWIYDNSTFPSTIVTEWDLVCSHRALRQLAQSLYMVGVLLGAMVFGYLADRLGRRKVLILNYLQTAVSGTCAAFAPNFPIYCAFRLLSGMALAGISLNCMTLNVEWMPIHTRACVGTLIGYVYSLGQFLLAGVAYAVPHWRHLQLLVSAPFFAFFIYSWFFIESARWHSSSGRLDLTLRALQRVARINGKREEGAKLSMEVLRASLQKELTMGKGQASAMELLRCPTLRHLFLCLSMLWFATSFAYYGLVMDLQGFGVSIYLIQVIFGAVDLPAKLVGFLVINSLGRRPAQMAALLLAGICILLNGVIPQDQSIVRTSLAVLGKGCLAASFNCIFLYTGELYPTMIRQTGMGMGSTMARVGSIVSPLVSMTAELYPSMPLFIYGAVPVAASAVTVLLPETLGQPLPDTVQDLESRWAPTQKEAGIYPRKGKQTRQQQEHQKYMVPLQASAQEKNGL

[3] = Toxicity in Kunming mouse assessed as irregular cell arrangements at 50 mg/kg, po and measured after 14 days by HE staining based microscopy; type: organism-based; conditions: in vivo, 336 h, time 14 day
[4] = Subacute toxicity in Kunming mouse assessed as ruffled fur at 50 mg/kg,po for 14 days; type: organism-based; conditions: in vivo, 336 h, time 14 day
[5] = molecular target: T2, Broad substrate specificity ATP-binding cassette transporter ABCG2 (Homo sapiens, UniProt Q9UNQ0); assay: Inhibition of ABCG2 (unknown origin) transfected in HEK293 cell membrane vesicle assessed as inhibition of 14C-uric acid uptake incubated for 15 mins in presence of ATP by liquid scintillation counter analysis; type: cell membranes
T2 sequence (Q9UNQ0 whole entry): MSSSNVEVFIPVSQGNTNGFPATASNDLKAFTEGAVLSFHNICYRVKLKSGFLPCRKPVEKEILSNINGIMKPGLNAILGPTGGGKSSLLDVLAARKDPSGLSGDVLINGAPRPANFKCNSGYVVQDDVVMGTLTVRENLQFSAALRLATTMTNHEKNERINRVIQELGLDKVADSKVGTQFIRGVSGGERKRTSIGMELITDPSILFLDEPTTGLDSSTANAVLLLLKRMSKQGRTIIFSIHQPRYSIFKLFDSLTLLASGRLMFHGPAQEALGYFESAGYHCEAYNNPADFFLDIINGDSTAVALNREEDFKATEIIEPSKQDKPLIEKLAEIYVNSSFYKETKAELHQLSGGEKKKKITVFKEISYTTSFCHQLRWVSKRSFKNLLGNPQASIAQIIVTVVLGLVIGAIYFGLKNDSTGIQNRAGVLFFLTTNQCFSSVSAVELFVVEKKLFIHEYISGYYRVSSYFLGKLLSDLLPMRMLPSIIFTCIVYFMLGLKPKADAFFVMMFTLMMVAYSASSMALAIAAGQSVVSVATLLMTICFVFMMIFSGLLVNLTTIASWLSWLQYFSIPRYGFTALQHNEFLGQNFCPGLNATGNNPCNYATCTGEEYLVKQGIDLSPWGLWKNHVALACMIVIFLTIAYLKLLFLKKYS

[6] = Half life in Sprague-Dawley rat at 5 mg/kg, iv and measured upto 24 hrs by LC-MS/MS analysis; type: ADME, organism-based; conditions: in vivo

With `CCc1oc2ccccc2c1C(=O)c1cc(Br)c(O)c(Br)c1` [BENZBROMARONE] the MRT inf [1] was 3.75 h, the Activity (Mus musculus) was “Active” and the IC50 [2] was 2.12 µM. The Activity [3] was “Non-Toxic”, the Activity [4] was “Non-Toxic” and the IC50 [5] was 0.34 µM. For the same molecule, the half-life [6] was 3.03 h.
